Results from US8916565B2, “Pyrrolopyrazine-spirocyclic piperidine amides as modulators of ion channels” (priority 2011, dated 2014).

What follows are molecules tested against human NaV subtype, like NaV 1.7 (Homo sapiens, UniProt Q15858) (assay: E-VIPR optical membrane potential assay with electrical stimulation). Conditions: active against one or more sodium channels; Table 3 does not name the assay or NaV subtype; read-out: Binned Activity Data (IC50).
Type: cell-based

Sequence of human NaV subtype, like NaV 1.7 (Q15858 whole entry): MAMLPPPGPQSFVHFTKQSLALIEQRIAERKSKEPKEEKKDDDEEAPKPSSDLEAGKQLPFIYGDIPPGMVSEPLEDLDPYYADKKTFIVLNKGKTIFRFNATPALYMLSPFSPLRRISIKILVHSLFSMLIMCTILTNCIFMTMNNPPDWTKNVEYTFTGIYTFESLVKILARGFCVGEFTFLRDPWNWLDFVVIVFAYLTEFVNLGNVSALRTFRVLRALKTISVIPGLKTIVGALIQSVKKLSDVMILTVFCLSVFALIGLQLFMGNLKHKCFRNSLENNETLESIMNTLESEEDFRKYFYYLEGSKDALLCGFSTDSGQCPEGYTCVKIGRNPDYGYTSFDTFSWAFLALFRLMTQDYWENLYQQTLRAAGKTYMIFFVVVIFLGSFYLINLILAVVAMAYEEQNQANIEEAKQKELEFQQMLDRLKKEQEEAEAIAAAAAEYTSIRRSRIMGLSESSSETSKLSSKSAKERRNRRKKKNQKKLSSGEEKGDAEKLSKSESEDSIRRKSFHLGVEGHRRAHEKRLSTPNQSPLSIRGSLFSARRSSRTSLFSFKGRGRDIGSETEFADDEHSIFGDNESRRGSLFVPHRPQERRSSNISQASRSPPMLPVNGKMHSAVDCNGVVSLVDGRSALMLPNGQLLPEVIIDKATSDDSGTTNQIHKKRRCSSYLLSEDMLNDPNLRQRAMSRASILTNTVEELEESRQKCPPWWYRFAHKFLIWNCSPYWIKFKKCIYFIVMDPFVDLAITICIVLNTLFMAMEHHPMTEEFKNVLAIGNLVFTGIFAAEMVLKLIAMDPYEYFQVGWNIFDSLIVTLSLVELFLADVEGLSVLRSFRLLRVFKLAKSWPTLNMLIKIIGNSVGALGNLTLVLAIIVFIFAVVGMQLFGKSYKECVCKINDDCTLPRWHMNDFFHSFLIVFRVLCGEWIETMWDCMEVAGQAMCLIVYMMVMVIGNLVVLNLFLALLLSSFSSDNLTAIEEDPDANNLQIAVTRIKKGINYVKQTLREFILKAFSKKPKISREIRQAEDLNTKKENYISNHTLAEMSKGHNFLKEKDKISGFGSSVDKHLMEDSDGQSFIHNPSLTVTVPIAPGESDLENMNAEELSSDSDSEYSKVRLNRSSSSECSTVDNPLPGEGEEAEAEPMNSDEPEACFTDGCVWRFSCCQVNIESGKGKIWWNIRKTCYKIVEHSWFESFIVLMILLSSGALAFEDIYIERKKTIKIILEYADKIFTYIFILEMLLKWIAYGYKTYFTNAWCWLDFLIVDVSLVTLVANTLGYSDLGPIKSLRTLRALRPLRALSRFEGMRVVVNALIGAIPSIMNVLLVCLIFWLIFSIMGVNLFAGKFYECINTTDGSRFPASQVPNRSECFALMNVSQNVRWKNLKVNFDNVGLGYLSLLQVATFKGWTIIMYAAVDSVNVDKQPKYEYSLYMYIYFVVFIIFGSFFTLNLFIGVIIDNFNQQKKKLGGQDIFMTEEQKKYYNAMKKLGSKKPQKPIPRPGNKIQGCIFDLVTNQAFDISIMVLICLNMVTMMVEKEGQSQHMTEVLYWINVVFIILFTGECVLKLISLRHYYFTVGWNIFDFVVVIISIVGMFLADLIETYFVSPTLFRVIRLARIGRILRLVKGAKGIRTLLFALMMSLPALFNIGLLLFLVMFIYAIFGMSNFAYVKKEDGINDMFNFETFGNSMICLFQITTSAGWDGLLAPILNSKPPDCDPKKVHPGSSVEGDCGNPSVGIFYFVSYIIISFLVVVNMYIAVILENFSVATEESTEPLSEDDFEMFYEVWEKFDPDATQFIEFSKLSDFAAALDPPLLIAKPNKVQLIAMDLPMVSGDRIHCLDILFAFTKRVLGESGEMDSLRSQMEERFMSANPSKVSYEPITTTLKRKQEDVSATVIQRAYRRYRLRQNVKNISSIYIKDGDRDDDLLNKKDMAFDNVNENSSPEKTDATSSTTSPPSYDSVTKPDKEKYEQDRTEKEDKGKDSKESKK

Row | SMILES | IC50 [nM]
1 | C[C@H]1Cn2c(C(=O)C(F)(F)F)ccc2C2(CCN(C(=O)c3ccc(O)c(Cl)c3)CC2)N1C [Compound 700] | ≤ 2000
2 | CC(=O)c1ccc2n1CCN(C)C21CCN(C(=O)c2ccc(S(=O)(=O)C(C)C)c(C)c2)CC1 [Compound 246] | > 5000
3 | COc1ccc(C(=O)N2CCC3(CC2)NCCn2c(C(F)(F)F)ccc23)cc1 [Compound 497] | > 5000
4 | Cc1cc(C(=O)N2CCC3(CC2)c2ccc(C(F)(F)C(F)(F)F)n2CCN3C)ccc1OCCCO [Compound 96] | ≤ 2000
5 | CCC(=O)c1ccc2n1CCN(C)C21CCN(C(=O)c2ccc(OC(C)C)c(Cl)c2)CC1 [Compound 107] | ≤ 2000
6 | CC(C)Oc1ccc(C(=O)N2CCC3(CC2)c2c(F)cc(C(F)(F)F)n2CCN3C)cn1 [Compound 431] | 2000 to 5000
7 | COc1ccc(C(=O)N2CCC3(CC2)c2ccc(C(=O)C(F)(F)F)n2C[C@H](C)N3C)nc1C [Compound 485] | ≤ 2000
8 | Cc1cc(C(=O)N2CCC3(CC2)c2ccc(C(F)(F)F)n2CCN3C)ccc1S(=O)(=O)N(C)C [Compound 347] | ≤ 2000
9 | COc1cc(C(=O)N2CCC3(CC2)c2ccc(C(=O)C(F)(F)F)n2CCN3C)ccc1OCC(C)C [Compound 516] | ≤ 2000
10 | Cc1cc(C(=O)N2CCC3(CC2)c2ccc(Cl)n2CCN3C)ccc1OCC(C)(C)O [Compound 531] | ≤ 2000
11 | Cc1cc(C(=O)N2CCC3(CC2)c2c(F)cc(C(F)(F)F)n2CCN3C)ccc1C(C)(C)O [Compound 262] | ≤ 2000
12 | Cc1cc(C(=O)N2CCC3(CC2)c2ccc(C(F)(F)C(F)(F)F)n2CCN3C)ccc1S(=O)(=O)C(C)C [Compound 326] | ≤ 2000
13 | CN1CCn2c(C(=O)C(F)(F)F)ccc2C12CCN(C(=O)c1ccc(C(O)COCC(F)(F)F)cc1)CC2 (stereo not shown) [Compound 72] | ≤ 2000
14 | Cc1cc(C(=O)N2CCC3(CC2)c2ccc(C(=O)C(F)(F)F)n2CCN3C)cnc1OC(C)C [Compound 291] | ≤ 2000
15 | CC(C)Oc1ccc(C(=O)N2CCC3(CC2)c2cc(C(=O)C(F)(F)F)cn2C(C)(C)CN3C)cc1F [Compound 391] | > 5000
16 | CN1CCn2c(C(=O)C(F)(F)F)ccc2C12CCN(C(=O)c1ccc(OC(C)(C)C)cc1)CC2 [Compound 6] | ≤ 2000
17 | CCOc1ccc(C(=O)N2CCC3(CC2)c2ccc(C(=O)C(F)(F)F)n2CCN3C)cc1C(F)(F)F [Compound 64] | ≤ 2000
18 | CCCOc1ccc(C(=O)N2CCC3(CC2)c2ccc(Cl)n2CCN3C)cc1 [Compound 590] | 2000 to 5000
19 | CN1CCn2c(Cl)ccc2C12CCN(C(=O)c1ccc(OCc3ccccc3)cc1)CC2 [Compound 68] | 2000 to 5000
20 | O=C(c1ccc(S(=O)(=O)NC2CC2)cc1)N1CCC2(CC1)NCCn1c(C(F)(F)F)ccc12 [Compound 569] | ≤ 2000
21 | Cc1cc(S(=O)(=O)C(C)C)ccc1C(=O)N1CCC2(CC1)c1ccc(C(=O)C(F)(F)F)n1CCN2C [Compound 153] | > 5000
22 | COc1cc(C(=O)N2CCC3(CC2)c2ccc(C(=O)C(F)(F)F)n2CCN3C)ccc1OCCOC(F)(F)F [Compound 360] | ≤ 2000
23 | CC[C@@H](C)Oc1ccc(C(=O)N2CCC3(CC2)c2ccc(C(C)=O)n2CCN3C)cc1OC [Compound 572] | ≤ 2000
24 | CC(C)Oc1ccc(C(=O)N2CCC3(CC2)c2ccc(C(=O)C(F)(F)F)n2C[C@@H](C)N3C)c(F)c1 [Compound 564] | ≤ 2000
25 | COc1ccc(C(=O)N2CCC3(CC2)c2ccc(C(=O)C(F)(F)F)n2C(C)CN3C)cc1C(F)(F)F (stereo not shown) [Compound 240] | ≤ 2000

Row | SMILES | IC50 [nM]
26 | CC(=O)c1ccc2n1CC(C)(C)NC21CCN(C(=O)c2ccc(C3CCCCC3)cc2)CC1 [Compound 643] | ≤ 2000
27 | COc1ccc(C(=O)N2CCC3(CC2)c2ccc(C(=O)C(F)(F)F)n2C(C)CN3C)cc1C (stereo not shown) [Compound 164] | ≤ 2000
28 | CN1CCn2c(C(=O)C(C)(C)C)ccc2C12CCN(C(=O)c1ccc(S(=O)(=O)NC3CC3)cc1)CC2 [Compound 274] | ≤ 2000
29 | CN1CCn2c(Cl)ccc2C12CCN(C(=O)c1ccc(COc3ccccc3)cc1)CC2 [Compound 414] | 2000 to 5000
30 | CN1CCn2c(ccc2C(F)(F)C(F)(F)F)C12CCN(C(=O)c1ccc(C(C)(C)O)cc1)CC2 [Compound 743] | ≤ 2000
31 | CCC(=O)N1CCn2c(C(F)(F)F)ccc2C12CCN(C(=O)c1ccc(OC(C)C)c(OC)c1)CC2 [Compound 428] | ≤ 2000
32 | Cc1cc(C(=O)N2CCC3(CC2)c2ccc(C(F)(F)F)n2CCN3C)ccc1OC(C)C [Compound 580] | ≤ 2000
33 | COc1cc(C(=O)N2CCC3(CC2)NCCn2c(C(F)(F)F)ccc23)ccc1C(C)(C)O [Compound 83] | ≤ 2000
34 | Cc1cc(C(=O)N2CCC3(CC2)c2ccc(CC(F)(F)F)n2CCN3C)ccc1S(=O)(=O)C(C)C [Compound 534] | > 5000
35 | Cc1cc(C(=O)N2CC[C@@]3(c4ccc(C(F)(F)F)n4CCN3C)[C@H](F)C2)ccc1C(C)(C)O [Compound 630] | ≤ 2000
36 | CC(C)Oc1ccc(C(=O)N2CCC3(CC2)c2ccc(C(=O)C(C)C)n2CCN3C)cc1Cl [Compound 674] | ≤ 2000
37 | CC(C)Oc1ccc(C(=O)N2CCC3(CC2)c2ccc(C(F)(F)F)n2CCN3C)c(F)c1 [Compound 546] | ≤ 2000
38 | COc1cc(C(=O)N2CC[C@@]3(c4ccc(C(F)(F)F)n4CCN3C)[C@H](F)C2)ccc1OC(C)C [Compound 327] | ≤ 2000
39 | CC(C)Oc1ccc(C(=O)N2CCC3(CC2)NCC(C)(C)n2c(C(F)(F)F)ccc23)cc1Cl [Compound 77] | ≤ 2000
40 | CC(C)Oc1ccc(C(=O)N2CCC3(CC2)c2c(F)cc(C(F)(F)F)n2CCN3C)cc1CO [Compound 390] | ≤ 2000
41 | CC[C@H](C)Oc1ccc(C(=O)N2CCC3(CC2)c2ccc(C(C)=O)n2CCN3C)cc1OC [Compound 609] | 2000 to 5000
42 | Cc1cc(C(=O)N2CCC3(CC2)N[C@H](C)Cn2c(C(F)(F)F)ccc23)ccc1OC(C)C [Compound 308] | ≤ 2000
43 | CCCN(CCC)S(=O)(=O)c1ccc(C(=O)N2CCC3(CC2)c2ccc(Cl)n2CCN3C)cc1 [Compound 479] | 2000 to 5000
44 | CC(=O)c1ccc2n1CCN(C)C21CCN(C(=O)c2ccc(OCc3ccccc3)cc2)CC1 [Compound 604] | ≤ 2000
45 | CC(C)Oc1ccc(C(=O)N2CCC3(CC2)c2ccc(C(F)(F)F)n2CCN3C)cc1Cl [Compound 100] | ≤ 2000
46 | CC(C)Oc1ccc(C(=O)N2CCC3(CC2)c2c(F)cc(C(F)(F)F)n2CCN3C)cc1 [Compound 562] | ≤ 2000
47 | COc1cc(C(=O)N2CCC3(CC2)NC(C)Cn2c(C(F)(F)F)ccc23)ccc1OC(C)C (stereo not shown) [Compound 320] | ≤ 2000
48 | CC(C)Oc1ccc(C(=O)N2CCC3(CC2)c2cc(C(=O)C(F)(F)F)cn2C(C)(C)CN3C)c(F)c1 [Compound 52] | > 5000
49 | COc1cc(C(=O)N2CCC3(CC2)c2ccc(C(F)(F)F)n2CC(C)N3C)ccc1OC(C)C (stereo not shown) [Compound 149] | ≤ 2000
50 | CN1CCn2c(Cl)ccc2C12CCN(C(=O)c1ccc(C(C)(C)C)cc1)CC2 [Compound 625] | > 5000

Row | SMILES | IC50 [nM]
51 | Cc1cc(C(=O)N2CCC3(CC2)c2ccc(C(=O)C(F)(F)F)n2CCN3C)ccc1Cl [Compound 1] | 2000 to 5000
52 | COc1cc(C(=O)N2CCC3(CC2)c2ccc(C(F)(F)F)n2CCN3CC2CC2)ccc1OC(C)C [Compound 574] | ≤ 2000
53 | CC(C)Oc1ccc(C(=O)N2CCC3(CC2)c2ccc(C(=O)C(F)(F)F)n2CCN3C)cc1 [Compound 233] | ≤ 2000
54 | CCCOc1ccc(C(=O)N2CCC3(CC2)c2c(F)cc(C(F)(F)F)n2CCN3C)cc1OC [Compound 397] | ≤ 2000
55 | CC(=O)c1ccc2n1CCN(C)C21CCN(C(=O)c2ccc(S(=O)(=O)C(F)F)cc2)CC1 [Compound 268] | > 5000
56 | CC(C)CCOc1ccc(C(=O)N2CCC3(CC2)c2ccc(C(=O)C(F)(F)F)n2C(C)CN3C)cc1 (stereo not shown) [Compound 646] | ≤ 2000
57 | CC(=O)c1ccc2n1CCN(C)C21CCN(C(=O)c2ccc(Oc3ccccc3)cc2)CC1 [Compound 78] | 2000 to 5000
58 | CN1CCn2c(C(=O)C3(C)CC3)ccc2C12CCN(C(=O)c1ccc(S(=O)(=O)NC3CC3)cc1)CC2 [Compound 53] | ≤ 2000
59 | Cc1cc(C(=O)N2CCC3(CC2)c2ccc(C(=O)C(F)(F)F)n2CCN3C)ccc1-c1ccn(C)n1 [Compound 295] | > 5000
60 | CC(C)CCOc1ccc(C(=O)N2CCC3(CC2)NCC(C)n2c(C(=O)C(F)(F)F)ccc23)nc1 (stereo not shown) [Compound 611] | ≤ 2000
61 | COc1cc(C(=O)N2CCC3(CC2)NC(C)(C)Cn2c(C(F)(F)F)ccc23)ccc1OC(C)C [Compound 551] | ≤ 2000
62 | Cc1cc(C(=O)N2CCC3(CC2)c2c(C#N)cc(C(F)(F)F)n2CCN3C)ccc1OC(C)C [Compound 526] | ≤ 2000
63 | CN1CCn2c(C(=O)C(F)(F)F)ccc2C12CCN(C(=O)c1ccc(S(=O)(=O)N(C)c3nccs3)cc1)CC2 [Compound 752] | ≤ 2000
64 | CCN(C)c1cc(C)nc2c(C(=O)N3CCC4(CC3)c3ccc(C(F)(F)F)n3CCN4C)cnn12 [Compound 660] | ≤ 2000
65 | COCCOc1ccc(C(=O)N2CCC3(CC2)c2ccc(C(=O)C(F)(F)F)n2CCN3C)cc1 [Compound 434] | > 5000
66 | CCOc1ccc(C(=O)N2CCC3(CC2)NC(C)(C)Cn2c(C(=O)C(F)(F)F)ccc23)cc1Cl [Compound 636] | ≤ 2000
67 | CC(=O)c1ccc2n1CCN(C)C21CCN(C(=O)c2ccc(-c3ccccc3)c(C)c2)CC1 [Compound 304] | ≤ 2000
68 | COc1cc(C(=O)N2CCC3(CC2)c2ccc(C(=O)C(F)(F)F)n2C(C)(C)CN3C)ccc1OC(C)C [Compound 126] | 2000 to 5000
69 | CC(C)Oc1ccc(C(=O)N2CCC3(CC2)c2ccc(C(=O)C4CC4)n2CCN3C)cc1Cl [Compound 639] | ≤ 2000
70 | CC(C)CCOc1ccc(C(=O)N2CCC3(CC2)c2ccc(C(=O)C(C)(C)C)n2CCN3C)cc1 [Compound 661] | ≤ 2000
71 | Cc1cc(C(=O)N2CCC3(CC2)c2c(C#N)cc(C(F)(F)F)n2CCN3C)ccc1C(C)(C)O [Compound 120] | 2000 to 5000
72 | CC(=O)c1ccc2n1CC(C)(C)NC21CCN(C(=O)c2ccc(OC(C)C)c(Cl)c2)CC1 [Compound 277] | ≤ 2000
73 | CC(C)Oc1ccc(C(=O)N2CCC3(CC2)c2ccc(C(=O)C(C)(C)C)n2CCN3C)cc1F [Compound 619] | ≤ 2000
